Measurements taken from patent US9353088B2, “Crystalline pharmaceutical and methods of preparation and use thereof” (SARcode Bioscience Inc., priority 2009, dated 2016).
Values joined by “and” are separate entries in the source; they are usually repeats but may differ in a detail not shown here. Identical values can stand only once. “Also recorded” adds a separate entry of the source. Like-named read-outs stand apart in the source and are kept apart here.

Experiments:
[1] = test system: micronuclei in polychromatic erythrocytes (PCE); assay: In vivo mouse bone marrow micronucleus assay; parameters: species or system CD-1 (ICR) BR mice; conditions: repeated IV administrations
[2] = Cardiovascular effects in conscious telemetry-instrumented dogs, IV bolus; format: in vivo, dogs (beagles); conditions: IV bolus injection
[3] = Plasma PK after single topical ocular instillation; conditions: post-dose
[4] = Phase 1 clinical trial of Ophthalmic Solution, safety and tolerability; format: in vivo, human
Source text: The objectives of the trial were to measure safety and tolerability, and pharmacokinetics in tear and plasma. The dosing schedule (OU; Oculus Uterque (each eye or both eyes)) was divided into 3 periods, each separated by a 72-hour wash out interval: once/day×1 day (drug one eye; placebo fellow eye), twice/day×10 days, and thrice/day×10 days, 14-day observation. Slit lamp examination of the eye, BCVA (Best Corrected Visual Acuity), STTs (Schirmer Tear Test), TBUT (Tear Break-Up Time), IOP (Intraocular pressure) were assessed at screening and the beginning and end of each period. For each cohort, masked safety data was reviewed by a Safety Committee prior to allowing dose escalation of the next cohort. A total of 2856 doses (102 drops/subject) were administered over 1148 total subject study days (41 study days/subject) in 56 eyes. All subjects in all cohorts completed the study, and no study drug doses were missed.

[5] = Single dose ocular and IV ADME with [14C]-compound; format: in vivo, dogs
Source text: No differences in results from male and female dogs were observed.

[6] = 13-week ocular toxicity study with 4-week recovery; conditions: 13-week ocular (3%)
[7] = test system: Chinese hamster ovary (CHO) cells; assay: In vitro chromosomal aberration assay in CHO cells; format: cell-based; conditions: with and without metabolic activation; except single toxic dose 3500 μg/mL without activation
Source text: The biological relevance of this response is equivocal due to cytotoxicity.

[8] = Solubility studies for dermal formulations; format: physicochemical
[9] = test system: attachment of Jurkat cells to ICAM-1; assay: T-cell adhesion assay using Jurkat cells; format: cell-based, human; conditions: versus positive control
Description: A reported LFA-1 antagonist was used as the positive control.
Jurkat cells were labeled with an 8 μM solution of BCECF-AM (2′,7′-bis-(2-carboxyethyl)-5-(and -6)-carboxyfluorescein) in growth media at room temperature for 15 minutes. […] Non-adherent cells were removed by washing and centrifugation at 100 g for 1 minute. Adherent cells were determined as adherent fluorescent units on a fluorescent plate reader.

[10] = rabbit, in vivo
[11] = test system: Keratoconjunctivitis Sicca (KCS); assay: Canine keratoconjunctivitis sicca (KCS) study; format: in vivo, dog; conditions: for Schirmer Tear Test (OS), Mean: Dog #7 not included
Source text: If dogs had been treated with topical CsA or tacrolimus in the previous six months, they were not enrolled. […] Animals were subjected to an ocular examination once during the initial visit and during five visits over sixteen weeks of the study (Weeks, 2, 4, 8, 12 and 16). The last OE was approximately four weeks after the last dose of the compound of Formula I and after one month of CsA treatment. The adnexa and anterior portions of both eyes were examined using an indirect opthalmoscope. The eyes were dilated with a mydriatic when applicable, to allow evaluation of the lens and fundus, including the retina. An evaluation using a modified McDonald-Shaddock scoring system was performed in conjunction with the slitlamp ocular examinations at each interval. Tears were measured using STT strips during the initial visit and each of the five follow-up visits on Weeks 2, 4, 8, 12 and 16. One strip of STT paper was used for each eye for each interval. […] The length, in mm, of wetting below the notch of the paper was recorded. Fluorescein and rose bengal staining was performed at the each of the initial and follow up examinations. Intraocular pressure measurements (IOPs) were performed using a Tono-Pet Vet® in conjunction with each of the OEs. Digital ocular images were taken before and after staining (with fluorescein and rose bengal) during each of the OEs. Conjunctival biopsies were taken at the initial (pretreatment) visit and the Week 12 visit. The second biopsy was taken more lateral (approx. 1 mm) to the initial biopsy. Following appropriate preparation a small conjunctival biopsy was taken from the ventral fornix of each eye.

[12] = Week 1 (initial visit), individual dogs, Dog ID 1-7 = r5-r11
[13] = Week 2, individual dogs, 1% solution TID, listed as compound of Formula I
[14] = Week 4, individual dogs, 1% solution TID, listed as compound of Formula I
[15] = Week 8, individual dogs, 1% solution TID, listed as compound of Formula I
[16] = Week 12, individual dogs, 1% solution TID, listed as compound of Formula I
[17] = Week 16, individual dogs, four weeks after last dose and after one month of CsA
[18] = Weeks 1-12, individual dogs 1-7 = r6-r12
[19] = during the 12-week treatment period

CS(=O)(=O)c1cccc(C[C@H](NC(=O)c2c(Cl)cc3c(c2Cl)CCN(C(=O)c2ccc4ccoc4c2)C3)C(=O)O)c1 [Compound of Formula I]
bone marrow micronucleus result [1]: no effect; also recorded: negative
effects on electrocardiography or hemodynamic parameters [2]: No effects
time of maximum plasma concentration [3]: about 0.25 hrs
adverse events considered related to administration ([4]; any dose strength (0.1-5%) or dose regimen, healthy adults): No deaths, discontinuations, serious or severe ocular or non-ocular AEs
total lymphocyte, CD3, CD4, CD8 cell counts ([4]; throughout the trial): no evidence of lymphocyte or neutrophil suppression
overall safety and tolerability ([4]; topical ocular instillation, dose strengths up to 5% TID): safe and well-tolerated
levels in conjunctiva/cornea ([5]; for 16 hrs, dog): greater than 1 micromolar
metabolites in pooled plasma, urine and fecal homogenate ([5]; up to 168 hrs post-dose): no metabolites detected
NOAEL [6]: 1.05 mg/eye/3× per day
induction of structural chromosomal aberrations [7]: negative
solubility ([8]; ethanol/glycol/transcutol solution): 10 % (w/w)
solubility ([8]; water/glycol/transcutol solution): 2 % (w/w)
dose response curve and IC50, Jurkat cell attachment [9]: comparable to that of the known direct competitive LFA-1 antagonist
level in vitreous fluid [10]: not detected
Schirmer Tear Test (OS) [11]: 9 mm
Schirmer Tear Test (OS) ([11]; 672 h): 17 mm
Schirmer Tear Test (OD), Mean ([11]; Week 1 (initial visit), Dog #1 not included): 5.5 mm
Schirmer Tear Test (OS), Mean ([11]; Week 1 (initial visit)): 4.2 mm
Schirmer Tear Test (OD) [11, 12]: 8 mm (2×) and 6 mm (2×) and 15 mm and 0 mm and 5 mm
Schirmer Tear Test (OS) [11, 12]: 18 mm and 0 mm (3×) and 9 mm and 7 mm
Schirmer Tear Test (OD), Mean ([11]; Week 2, Dog #1 not included): 7.8 mm
Schirmer Tear Test (OS), Mean ([11]; Week 2): 4.8 mm
Schirmer Tear Test (OS) ([11]; Week 2, individual dogs, 1% solution TID): 4 mm
Schirmer Tear Test (OD) [11, 13]: 10 mm and 2 mm (2×) and 18 mm and 11 mm (3×)
Schirmer Tear Test (OS) [11, 13]: 0 mm (2×) and 14 mm and 3 mm and 8 mm
Schirmer Tear Test (OD), Mean ([11]; Week 4, Dog #1 not included): 7.0 mm
Schirmer Tear Test (OS), Mean ([11]; Week 4): 6.7 mm
Schirmer Tear Test (OS) ([11]; Week 4, individual dogs, 1% solution TID): 14 mm
Schirmer Tear Test (OD) [11, 14]: 15 mm and 2 mm and 12 mm and 0 mm and 5 mm and 10 mm (2×)
Schirmer Tear Test (OS) [11, 14]: 0 mm (2×) and 7 mm and 5 mm and 14 mm
Schirmer Tear Test (OD), Mean ([11]; Week 8, Dog #1 not included): 8.5 mm
Schirmer Tear Test (OS), Mean ([11]; Week 8): 6.5 mm
Schirmer Tear Test (OS) ([11]; Week 8, individual dogs, 1% solution TID): 8 mm
Schirmer Tear Test (OD) [11, 15]: 17 mm and 1 mm and 16 mm and 8 mm and 7 mm (2×) and 11 mm
Schirmer Tear Test (OS) [11, 15]: 19 mm and 0 mm and 2 mm and 17 mm and 6 mm and 8 mm
Schirmer Tear Test (OD), Mean ([11]; Week 12, Dog #1 not included): 8.8 mm
Schirmer Tear Test (OS), Mean ([11]; Week 12): 8.7 mm
Schirmer Tear Test (OS) ([11]; Week 12, individual dogs, 1% solution TID): 8 mm
Schirmer Tear Test (OD) [11, 16]: 16 mm and 0 mm and 13 mm (2×) and 8 mm and 7 mm and 9 mm
Schirmer Tear Test (OS) [11, 16]: 18 mm and 3 mm and 7 mm and 15 mm and 4 mm and 8 mm
Schirmer Tear Test (OD), Mean ([11]; Week 16, after one month of CsA, Dog #1 and anomalous Dog #5 value not included): 11.7 mm
Schirmer Tear Test (OS), Mean ([11]; Week 16, after one month of CsA): 11.0 mm
Schirmer Tear Test (OD) [11, 17]: 18 mm and 12 mm (2×) and 8 mm (3×) and 22** mm
Schirmer Tear Test (OS) [11, 17]: 18 mm and 3 mm and 5 mm and 16 mm and 7 mm and 19 mm
Maximum-Minimum analysis, Total OD ([11]; Weeks 1-12): Total = 28
Maximum-Minimum analysis, Total OS ([11]; Weeks 1-12): Total = 44
Maximum-Minimum analysis, maximal change in STT, OD [11, 18]: 3 and 8 (3×) and −4 and 5
Maximum-Minimum analysis, maximal change in STT, OS [11, 18]: 7 (2×) and 11 and 3 and 10 and 6
average STT improvement, all 12 eyes [11, 19]: 4 mm
average improvement in OD (right eye) STT [11, 19]: 3.3 mm
average improvement in OS (left eye) STT [11, 19]: 4.5 mm
Histopathological evaluation of conjunctival biopsies before and after treatment ([11]; pretreatment vs Week 12): attenuation of lymphocyte accumulation
Schirmer test scores over pretreatment ([11]; week 12): Significant improvement
